According to ChEMBL document CHEMBL1140122 (J Med Chem, 2008):

What was measured:
[1] = Cytotoxicity against BALB mouse 3T3 cells after 48 hrs; format: cell-based; settings: BALB 3T3 cells
NCI-H460 = assay: Cytotoxicity against human H460 cells after 48 hrs; format: functional; settings: NCI-H460, 48 h
DU-145 = assay: Cytotoxicity against human DU145 cells after 48 hrs; format: functional; settings: DU-145, 48 h
MCF7 = assay: Cytotoxicity against human MCF7 cells after 48 hrs; format: functional; settings: MCF7, 48 h
M14 = assay: Cytotoxicity against human M14 cells after 48 hrs; format: functional; settings: M14, 48 h
HT-29 = assay: Cytotoxicity against human HT29 cells after 48 hrs; format: functional; settings: HT-29, 48 h
PC-3 = assay: Cytotoxicity against human PC3 cells after 48 hrs; format: functional; settings: PC-3, 48 h
K562 = assay: Cytotoxicity against human K562 cells after 48 hrs; format: functional; settings: K562, 48 h
Trypanosoma cruzi = assay: Antitrypanosomal activity against Trypanosoma cruzi Tulahuen C4 in african green monkey Vero cells after 120 hrs; format: functional, organism-based
Vero = assay: Cytotoxicity against african green monkey Vero cells by MTT assay; format: cell-based; settings: Chlorocebus sabaeus
[2] = Selectivity index, IC50 for african green monkey Vero cells to IC50 for Trypanosoma cruzi Tulahuen C4; format: functional

Compound	GI50 at 48 h [1]	GI50 (NCI-H460)	GI50 (DU-145)	GI50 (MCF7)	GI50 (M14)	GI50 (HT-29)	GI50 (PC-3)	GI50 (K562)	IC50 (Trypanosoma cruzi)	IC50 (Vero)	Ratio IC50 [2]
COc1ccc(/C=C/C(=O)c2c(O)cc(O)cc2OC)cc1	6.7 µM	14 µM	9 µM	17.3 µM	19.6 µM	21.6 µM	19.3 µM	17 µM	> 25 µM	–	–
C=CCOc1cc(OC)c(C(=O)/C=C/c2ccc3c(c2)OCO3)c(OCC=C)c1	31.7 µM	14.5 µM	17.5 µM	10.9 µM	17.2 µM	24.1 µM	9.6 µM	12.2 µM	13.6 µM	73.5 µM	5.4
C=CCOc1cc(OC)c(C(=O)/C=C/c2ccccc2F)c(OCC=C)c1	–	–	–	–	–	–	–	–	6.2 µM	16.3 µM	2.6
COc1ccc(CCC(=O)c2c(O)cc(O)cc2OC)cc1	> 206 µM	128 µM	> 206 µM	65.5 µM	109 µM	> 206 µM	59.9 µM	22.8 µM	> 25 µM	–	–
C=CCOc1cc(OC)c(C(=O)/C=C/c2ccc(C(F)(F)F)cc2)c(OCC=C)c1	–	–	–	–	–	–	–	–	15.6 µM	7.2 µM	0.5
COc1ccc(CCC(=O)c2c(O)cc(OC)cc2OC)cc1	> 197 µM	> 197 µM	> 197 µM	> 197 µM	> 197 µM	> 197 µM	> 197 µM	> 197 µM	> 100 µM	–	–
COc1cc(O)c(C(=O)/C=C/c2ccc3c(c2)OCO3)c(OC)c1	39 µM	> 190 µM	> 190 µM	140 µM	> 190 µM	> 190 µM	118 µM	18.9 µM	> 25 µM	–	–
C=CCOc1cc(OC)c(C(=O)/C=C/c2ccc(Cl)cc2)c(OCC=C)c1	–	–	–	–	–	–	–	–	8.6 µM	10.4 µM	1.2
COc1cc(O)cc(O)c1C(=O)/C=C/c1ccc2c(c1)OCO2	5.1 µM	15.6 µM	12.4 µM	20.4 µM	22.6 µM	20.7 µM	18.5 µM	16.2 µM	9.4 µM	25.5 µM	2.7
O=c1[nH]cc(F)c(=O)[nH]1 [FLUOROURACIL]	< 1.54 µM	4.1 µM	15.4 µM	6.5 µM	22.4 µM	8.9 µM	14.6 µM	16.7 µM	–	–	–
COc1cc(O)c(C(=O)CCc2ccc3c(c2)OCO3)c(OC)c1	21.5 µM	105 µM	60.2 µM	42.4 µM	82 µM	145 µM	39.1 µM	28.2 µM	> 100 µM	–	–
C=CCOc1cc(OC)c(C(=O)/C=C/c2ccncc2)c(OCC=C)c1	–	–	–	–	–	–	–	–	1.5 µM	2.8 µM	1.9
C=CCOc1cc(OC)c(C(=O)/C=C/c2cc(OC)c(OC)c(OC)c2)c(OCC=C)c1	–	–	–	–	–	–	–	–	3.4 µM	40.9 µM	12
C=CCOc1cc(OC)c(C(=O)/C=C/c2ccc[nH]2)c(OCC=C)c1	–	–	–	–	–	–	–	–	> 100 µM	–	–
C=CCOc1cc(OC)c(C(=O)/C=C/c2cccc(OC)c2)c(OCC=C)c1	–	–	–	–	–	–	–	–	14.2 µM	–	9.9
C=CCOc1cc(OC)c(C(=O)/C=C/c2ccc(C)cc2)c(OCC=C)c1	–	–	–	–	–	–	–	–	17.2 µM	–	12.3
C=CCOc1cc(OC)c(C(=O)/C=C/c2ccc(F)cc2)c(OCC=C)c1	–	–	–	–	–	–	–	–	14.3 µM	13.6 µM	0.9
C=CCOc1cc(OC)c(C(=O)/C=C/c2ccco2)c(OCC=C)c1	–	–	–	–	–	–	–	–	12.2 µM	–	15.6
C=CCOc1cc(OC)c(C(=O)/C=C/C=C/c2ccccc2)c(OCC=C)c1	–	–	–	–	–	–	–	–	> 25 µM	–	–
C=CCOc1cc(OC)c(C(=O)/C=C/c2ccc(O)c(OC)c2)c(OCC=C)c1	–	–	–	–	–	–	–	–	> 25 µM	–	–
C=CCOc1cc(OC)c(C(=O)/C=C/c2ccccc2Br)c(OCC=C)c1	–	–	–	–	–	–	–	–	13.9 µM	13.9 µM	1
C=CCOc1cc(OC)c(C(=O)/C=C/c2ccccn2)c(OCC=C)c1	–	–	–	–	–	–	–	–	1.9 µM	2.8 µM	1.5
C=CCOc1cc(OC)c(C(=O)/C=C/c2ccc(OC)cc2OC)c(OCC=C)c1	–	–	–	–	–	–	–	–	13.1 µM	92.6 µM	7.1
C=CCOc1cc(OC)c(C(=O)/C=C/c2ccccc2)c(OCC=C)c1	–	–	–	–	–	–	–	–	17.1 µM	17.1 µM	1
COc1ccc(/C=C/C(=O)c2c(O)cc(OC)cc2OC)cc1 [FLAVOKAWAIN A]	17.2 µM	24.1 µM	30.8 µM	17.5 µM	22.5 µM	45.3 µM	15.2 µM	20.5 µM	> 25 µM	–	–
C=CCOc1cc(OC)c(C(=O)/C=C/c2ccc(O)cc2)c(OCC=C)c1	–	–	–	–	–	–	–	–	20.3 µM	76.4 µM	3.8
CC1CS(=O)(=O)CCN1/N=C/c1ccc([N+](=O)[O-])o1 (stereo unspecified) [NIFURTIMOX]	–	–	–	–	–	–	–	–	0.52 µM	80.1 µM	154
C=CCOc1cc(OC)c(C(=O)/C=C/c2ccc(OC)cc2)c(OCC=C)c1	41 µM	20 µM	21 µM	19.5 µM	27.6 µM	28.4 µM	18.1 µM	16.6 µM	21.4 µM	99.9 µM	4.7
C=CCOc1cc(OC)c(C(=O)/C=C/c2cc(OCC=C)c(Br)c(OCC=C)c2)c(OCC=C)c1	–	–	–	–	–	–	–	–	6.9 µM	96.3 µM	13.9
C=CCOc1cc(OC)c(C(=O)/C=C/c2ccc([N+](=O)[O-])cc2)c(OCC=C)c1	–	–	–	–	–	–	–	–	4.1 µM	12.6 µM	3.1
